Among the data in patent EP0543245A1, “Renin inhibiting amino acid derivatives” (F. HOFFMANN-LA ROCHE AG, priority 1991, dated 1993) are IC50 values, retold here.

This test concerns the target T1, Human-Renin (Homo sapiens, UniProt P00797).
T1 sequence (P00797 67-406): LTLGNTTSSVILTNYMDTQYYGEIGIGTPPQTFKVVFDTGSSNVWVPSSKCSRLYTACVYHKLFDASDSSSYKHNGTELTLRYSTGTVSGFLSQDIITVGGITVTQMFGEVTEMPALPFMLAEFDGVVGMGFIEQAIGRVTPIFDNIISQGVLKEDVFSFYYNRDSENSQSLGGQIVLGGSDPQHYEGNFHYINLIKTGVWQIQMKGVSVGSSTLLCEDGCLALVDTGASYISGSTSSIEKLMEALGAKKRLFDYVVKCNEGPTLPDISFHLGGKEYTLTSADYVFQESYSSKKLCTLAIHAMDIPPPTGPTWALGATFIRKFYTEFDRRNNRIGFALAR
Put plainly: In vitro test with pure human renin. It is filed as biochemical. Conditions: human tetradecapeptide renin substrate (hTD), pH 7.4, 3 h at 37°C vs 4°C, angiotensin I measured by RIA, read-out: IC₅₀-Werte. How it is done: In vitro-Test mit reinem Human-Renin
Der Test wird in Eppendorf Röhrchen durchgeführt. Die Inkubationsmischung besteht aus (1) 100 µl Human-Renin in Puffer A (0,1M Natriumphosphatlösung, pH 7.4, enthaltend 0,1% Rinderserumalbumin, 0,1% Natriumazid und 1 mM Aethylendiamintetraessigsäure), genügend für eine Renin-Aktivität von 2-3 ng Angiotensin I/ ml/Std.; (2) 145 µl Puffer A; (3) 30 µl von 10 µM humanem Tetradekapeptid-Reninsubstrat (hTD) in 10 mM Salzsäure; (4) 15 µl Dimethylsulfoxid mit bzw. ohne Hemmer und (5) 10 µl einer 0,03 molaren Lösung von Hydroxychinolinsulfat in Wasser.
Die Proben werden drei Stunden bei 37°C bzw. 4°C in Triplikaten inkubiert. 2 x 100 µl Proben pro Versuchsröhrchen werden dann verwendet, um die Produktion von Angiotensin I via RIA (standard radioimmunoassay; Clinical Assay solid phase kit) zu messen. Kreuzreaktivitäten der verwendeten Antikörper im RIA sind: Angiotensin I 100%; Angiotensin II 0,0013%; hTD (Angiotensin I-Val-Ile-His-Ser-OH) 0,09%. Die Produktion von Angiotensin I wird durch die Differenz zwischen dem Versuch bei 37°C und demjenigen bei 4°C bestimmt.
Folgende Kontrollen werden mitgeführt: • (a) Inkubation von hTD-Proben ohne Renin und ohne Hemmer bei 37°C und 4°C. Die Differenz zwischen diesen beiden Werten ergibt den Grundwert der Angiotensin I-Produktion. • (b) Inkubation von hTD-Proben mit Renin, jedoch ohne Hemmer bei 37°C und 4°C. Die Differenz zwischen diesen Werten ergibt den Maximalwert der Angiotensin I-Produktion.
In jeder Probe wird von der ermittelten Angiotenin I-Produktion der Grundwert der Angiotensin I-Produktion abgezogen. Die Differenz zwischen dem Maximalwert und dem Grundwert ergibt den Wert der maximalen Substrathydrolyse (=100%) durch Renin.
Die Resultate werden als IC₅₀-Werte angegeben, welche diejenige Konzentration des Hemmers bezeichnen, bei welcher die enzymatische Aktivität um 50% gehemmt wird. Die IC₅₀-Werte werden aus einer linearen Regressionskurve aus einem logit-log plot ermittelt.

With `O=C(N[C@@H](CC1CCCCC1)[C@@H](O)[C@@H](O)C1CC1)C(Cc1cccnc1)c1nnc2c(C3CC3)nc(-c3cccnc3)cn12` (single isomer, unassigned) [A], the IC50 was determined as 51 nM.
As for `O=C(N[C@@H](CC1CCCCC1)[C@@H](O)[C@@H](O)C1CC1)C(Cc1cscn1)c1nnc2c(C3CC3)nc(-c3cccnc3)cn12` (single isomer, unassigned) [B], the IC50 turned out to be 2 nM.
Turning to `O=C(N[C@@H](CC1CCCCC1)[C@@H](O)[C@@H](O)C1CC1)C(Cc1cccnc1)c1nnc2c(CC3CC3)nc(-c3cccnc3)cn12` (single isomer, unassigned) [C], the IC50 was 17 nM.
As to `O=C(N[C@@H](CC1CCCCC1)[C@@H](O)[C@@H](O)C1CC1)C(Cc1cscn1)c1nnc2c(CC3CC3)nc(-c3cccnc3)cn12` (single isomer, unassigned) [D], the IC50 turned out to be 2.3 nM.
Take `CC(C)Cc1nc(-c2cccnc2)nn2c(C(Cc3cccnc3)C(=O)N[C@@H](CC3CCCCC3)[C@@H](O)[C@@H](O)C3CC3)nnc12` (single isomer, unassigned) [F]: the IC50 was found to be 150 nM.
`O=C(N[C@@H](Cc1ccccc1)[C@@H](O)[C@@H](O)C1CC1)C(Cc1cccnc1)c1nnc2c(C3CC3)nc(-c3cccnc3)cn12` (stereo partly drawn) [E, (R,S)-N-[(1S,2R,3S)-1-Benzyl-3-cyclopropyl-2,3-dihydroxypropyl]-8-cyclopropyl-6-(3-pyridyl)-α-(3-pyridylmethyl)-s-triazolo[4,3-a]pyrazin-3-acetamid]: the IC50 is 100 nM.
For the compound `C=CCC(C(=O)N[C@@H](CC1CCCCC1)[C@@H](O)[C@@H](O)C1CC1)c1nnc2c(CCC)nc(-c3cccnc3)cn12` (stereo partly drawn) [G, (R,S)-α-Allyl-N-[(1S,2R,3S)-1-(cyclohexylmethyl)3-cyclopropyl-2,3-dihydroxypropyl]-8-propyl-6-(3-pyridyl)-s-triazolo[4,3-a]pyrazin-3-acetamid], the IC50 was 16 nM.
